Data published in BindingDB's records for doi:10.1016/j.bmcl.2023.129277 (n/a, 2023).

Key:
[1] = Inhibition of PKD1 (unknown origin) assessed as inhibition constant
[2] = Inhibition of PKD1 (unknown origin)

## CN1C(=O)[C@](O)(C#Cc2cccc(-n3nc(C(N)=O)c4cccnc43)c2)[C@H]2C[C@H]21 [1-(3-(((1R,4R,5S)-4-hydroxy-2-methyl-3-oxo-2-azabicyclo[3.1.0]hexan-4-yl)ethynyl)phenyl)-1H-pyrazolo[3,4-b]pyridine-3-carboxamide]
[1]
  Ki: 64 nM
[2]
  IC50: 210 nM
